The supplement of paper PMC11451515

What was measured:
Conditions in all cases: 48 h
NOMO1 = test: AUC of viability dose-response curve (% viability x log10 dose units); higher = less sensitive
In short: (§1)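 Library compounds in DMSO were applied for 48 h at 37°C at 11 threefold doses (47 μM to 0.79 nM) to medium-adapted leukemia cells in 1536-well plates holding 500 or 1000 cells/well. Luminescence from CellTiter-Glo One was normalised plate by plate against DMSO and cell-free wells. Area under the curve came from trapezoidal integration of a log-logistic fit, after scaling curves that rose above full viability and discarding those that failed quality control. The fit had four parameters and used log10 doses.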

SEM cells [1] = test: as above
In short: as §1

P12-Ichikawa [2] = test: as above
In short: as §1

SEM cells [3] = test: cell viability relative to DMSO control; higher = less cytotoxic
In short: (§2)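 Three leukemia lines were tested: NOMO1 and SEM at 500 cells/well and P12-Ichikawa at 1000 cells/well. Each was adapted for at least four passages in each medium and seeded in 5 μl in 1536-well plates, and library compounds in DMSO were pin-dosed from 47 μM to 0.79 nM in 11 threefold steps. After 48 h at 37°C, CellTiter-Glo One luminescence was read. Viability is a percentage relative to DMSO wells on each plate, with cell-free wells as background.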

P12-Ichikawa [4] = test: as above
In short: as §2

COC(=O)C1=C(C)NC(C)=C(C(=O)OCCN2CCN(C(c3ccccc3)c3ccccc3)CC2)C1c1cccc([N+](=O)[O-])c1.Cl.Cl (configuration not stated)
AUC of viability dose-response curve
Conditions | NOMO1 | P12-Ichikawa [2] | SEM cells [1]
HPLM + 10% dialyzed FBS | 472 | 447 | 463
RPMI 5 mM glucose + 10% FBS | 464 | 464 | 421
RPMI 5 mM glucose + 10% dialyzed FBS | 445 | 442 | 453

CNC(=O)c1ccccc1Nc1nc(Nc2ccc(N3CCOCC3)cc2OC)ncc1Cl
AUC of viability dose-response curve
Conditions | NOMO1 | P12-Ichikawa [2] | SEM cells [1]
HPLM + 10% dialyzed FBS | 387 | 408 | 349
RPMI 5 mM glucose + 10% FBS | 397 | 404 | 332
RPMI 5 mM glucose + 10% dialyzed FBS | 377 | 416 | 337

O=C(Cc1cccc(OC(F)(F)F)c1)Nc1ccc(CCCCc2nnc(NC(=O)Cc3ccccn3)s2)nn1
AUC of viability dose-response curve
Conditions | NOMO1 | P12-Ichikawa [2] | SEM cells [1]
HPLM + 10% dialyzed FBS | 407 | 426 | 381
RPMI 5 mM glucose + 10% FBS | 388 | 386 | 276
RPMI 5 mM glucose + 10% dialyzed FBS | 394 | 387 | 277

cell viability [%]
Conditions | HPLM + 10% dialyzed FBS | RPMI 5 mM glucose + 10% FBS | RPMI 5 mM glucose + 10% dialyzed FBS
P12-Ichikawa [4], 0.000781 µM | 120 | 121 | –
P12-Ichikawa [4], 0.00234 µM | 118 | 113 | –
P12-Ichikawa [4], 0.00702 µM | 126 | 121 | –
P12-Ichikawa [4], 0.0211 µM | 112 | 115 | –
P12-Ichikawa [4], 0.0632 µM | 115 | 103 | –
P12-Ichikawa [4], 0.19 µM | 107 | 95.6 | –
P12-Ichikawa [4], 0.569 µM | 101 | 83 | –
P12-Ichikawa [4], 1.71 µM | 99.4 | 83.2 | –
P12-Ichikawa [4], 5.12 µM | 103 | 71.2 | –
P12-Ichikawa [4], 15.4 µM | 91.7 | 77.8 | –
P12-Ichikawa [4], 46.1 µM | 95.8 | 76.5 | –
SEM cells [3], 0.000781 µM | 122 | – | 141
SEM cells [3], 0.00234 µM | 107 | – | 116
SEM cells [3], 0.00702 µM | 119 | – | 108
SEM cells [3], 0.0211 µM | 112 | – | 91.8
SEM cells [3], 0.0632 µM | 107 | – | 78.8
SEM cells [3], 0.19 µM | 89 | – | 70.3
SEM cells [3], 0.569 µM | 86.7 | – | 70.6
SEM cells [3], 1.71 µM | 87.4 | – | 60.2
SEM cells [3], 5.12 µM | 79.5 | – | 56.7
SEM cells [3], 15.4 µM | 72 | – | 50.7
SEM cells [3], 46.1 µM | 65.1 | – | 46

Cc1cccc(C)c1NC(=O)CN1CCCC1=O
AUC of viability dose-response curve
Conditions | NOMO1 | P12-Ichikawa [2] | SEM cells [1]
HPLM + 10% dialyzed FBS | 463 | 444 | 470
RPMI 5 mM glucose + 10% FBS | 458 | 434 | 461
RPMI 5 mM glucose + 10% dialyzed FBS | 470 | 458 | 431

SEM cells [3], HPLM + 10% dialyzed FBS
Conditions | cell viability [%]
0.000781 µM | 115
0.00234 µM | 121
0.00702 µM | 125
0.0211 µM | 123
0.0632 µM | 125
0.19 µM | 122
0.569 µM | 126
1.71 µM | 129
5.12 µM | 122
15.4 µM | 116
46.1 µM | 103

O=c1cc(O)c(Cl)c[nH]1
AUC of viability dose-response curve
Conditions | NOMO1 | P12-Ichikawa [2] | SEM cells [1]
HPLM + 10% dialyzed FBS | 378 | 391 | 455
RPMI 5 mM glucose + 10% FBS | 396 | 395 | 416
RPMI 5 mM glucose + 10% dialyzed FBS | 394 | 417 | 453

COc1ccc(CCN2CCN(CCCc3ccccc3)CC2)cc1OC
AUC of viability dose-response curve
Conditions | NOMO1 | P12-Ichikawa [2] | SEM cells [1]
HPLM + 10% dialyzed FBS | 459 | 466 | 461
RPMI 5 mM glucose + 10% FBS | 444 | 472 | 465
RPMI 5 mM glucose + 10% dialyzed FBS | 439 | 473 | 457

cell viability [%], SEM cells [3]
Conditions | HPLM + 10% dialyzed FBS | RPMI 5 mM glucose + 10% FBS | RPMI 5 mM glucose + 10% dialyzed FBS
0.000781 µM | 100 | 108 | 115
0.00234 µM | 115 | 125 | 113
0.00702 µM | 117 | 112 | 132
0.0211 µM | 133 | 124 | 134
0.0632 µM | 133 | 133 | 141
0.19 µM | 138 | 132 | 162
0.569 µM | 134 | 127 | 150
1.71 µM | 126 | 129 | 148
5.12 µM | 125 | 133 | 141
15.4 µM | 127 | 125 | 139
46.1 µM | 127 | 109 | 122

CC(C)NCC(O)c1ccc(O)c(O)c1 (configuration not stated)
AUC of viability dose-response curve
Conditions | NOMO1 | P12-Ichikawa [2] | SEM cells [1]
HPLM + 10% dialyzed FBS | 376 | 389 | 455
RPMI 5 mM glucose + 10% FBS | 389 | 394 | 427
RPMI 5 mM glucose + 10% dialyzed FBS | 391 | 407 | 457

Cc1c(C(=O)Nc2ccc(N3C[C@@H](C)O[C@@H](C)C3)nc2)cccc1-c1ccc(OC(F)(F)F)cc1
AUC of viability dose-response curve
Conditions | NOMO1 | P12-Ichikawa [2] | SEM cells [1]
HPLM + 10% dialyzed FBS | 366 | 349 | 361
RPMI 5 mM glucose + 10% FBS | 382 | 372 | 335
RPMI 5 mM glucose + 10% dialyzed FBS | 408 | 372 | 356

Conditions | cell viability [%]
P12-Ichikawa [4], RPMI 5 mM glucose + 10% dialyzed FBS, 0.000781 µM | 128
P12-Ichikawa [4], RPMI 5 mM glucose + 10% dialyzed FBS, 0.00234 µM | 119
P12-Ichikawa [4], RPMI 5 mM glucose + 10% dialyzed FBS, 0.00702 µM | 119
P12-Ichikawa [4], RPMI 5 mM glucose + 10% dialyzed FBS, 0.0211 µM | 131
P12-Ichikawa [4], RPMI 5 mM glucose + 10% dialyzed FBS, 0.0632 µM | 131
P12-Ichikawa [4], RPMI 5 mM glucose + 10% dialyzed FBS, 0.19 µM | 126
P12-Ichikawa [4], RPMI 5 mM glucose + 10% dialyzed FBS, 0.569 µM | 124
P12-Ichikawa [4], RPMI 5 mM glucose + 10% dialyzed FBS, 1.71 µM | 104
P12-Ichikawa [4], RPMI 5 mM glucose + 10% dialyzed FBS, 5.12 µM | 48.6
P12-Ichikawa [4], RPMI 5 mM glucose + 10% dialyzed FBS, 15.4 µM | 7.92
P12-Ichikawa [4], RPMI 5 mM glucose + 10% dialyzed FBS, 46.1 µM | 6.12
SEM cells [3], HPLM + 10% dialyzed FBS, 0.000781 µM | 113
SEM cells [3], HPLM + 10% dialyzed FBS, 0.00234 µM | 125
SEM cells [3], HPLM + 10% dialyzed FBS, 0.00702 µM | 116
SEM cells [3], HPLM + 10% dialyzed FBS, 0.0211 µM | 133
SEM cells [3], HPLM + 10% dialyzed FBS, 0.0632 µM | 131
SEM cells [3], HPLM + 10% dialyzed FBS, 0.19 µM | 124
SEM cells [3], HPLM + 10% dialyzed FBS, 0.569 µM | 132
SEM cells [3], HPLM + 10% dialyzed FBS, 1.71 µM | 108
SEM cells [3], HPLM + 10% dialyzed FBS, 5.12 µM | 16.3
SEM cells [3], HPLM + 10% dialyzed FBS, 15.4 µM | 6.58
SEM cells [3], HPLM + 10% dialyzed FBS, 46.1 µM | 4.61

CN1[C@@H]2CCC[C@H]1C[C@@H](NC(=O)c1nn(C)c3ccccc13)C2.Cl
AUC of viability dose-response curve
Conditions | NOMO1 | P12-Ichikawa [2] | SEM cells [1]
HPLM + 10% dialyzed FBS | 468 | 463 | 468
RPMI 5 mM glucose + 10% FBS | 466 | 444 | 434
RPMI 5 mM glucose + 10% dialyzed FBS | 465 | 465 | 457

SEM cells [3], HPLM + 10% dialyzed FBS
Conditions | cell viability [%]
0.000781 µM | 112
0.00234 µM | 110
0.00702 µM | 126
0.0211 µM | 115
0.0632 µM | 126
0.19 µM | 123
0.569 µM | 124
1.71 µM | 125
5.12 µM | 133
15.4 µM | 119
46.1 µM | 115

C[C@H]1O[C@H](O[C@H]2[C@H](O)[C@@H](O)[C@H](O[C@@H]2CO)O[C@H]3[C@H](O)[C@@H](O)C(O)O[C@@H]3CO)[C@H](O)[C@@H](O)[C@@H]1N[C@H]4\C=C(CO)/[C@@H](O)[C@H](O)[C@H]4O (some centres not stated)
AUC of viability dose-response curve
Conditions | NOMO1 | P12-Ichikawa [2] | SEM cells [1]
HPLM + 10% dialyzed FBS | 330 | 321 | 437
RPMI 5 mM glucose + 10% FBS | 309 | 335 | 456
RPMI 5 mM glucose + 10% dialyzed FBS | 319 | 374 | 432

Fc1ccc(CNc2ncnc3ccc(F)cc23)cc1
AUC of viability dose-response curve
Conditions | HPLM + 10% dialyzed FBS | RPMI 5 mM glucose + 10% FBS | RPMI 5 mM glucose + 10% dialyzed FBS
NOMO1 | 445 | 452 | 419
P12-Ichikawa [2] | 453 | 429 | 429
